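Cells were grown in 96-well plates and exposed to each compound for 48 hours at five concentrations; endpoints were interpolated linearly between bracketing concentrations, or set to the highest concentration if not reached. At the GI50, growth is halved. Definition used: TGI = concentration required for complete inhibition of growth.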 Some results are limits rather than exact numbers.

Among the test systems are COLO 205 colon; DMS 273 small cell lung; HCC-2998 colon; HOP-92 NSCLC; K-562 leukemia; KM20L2 colon; LXFL 529 NSCLC; SF-295 CNS; SF-539 CNS; NCI/ADR-RES ovarian.
What all share (experiment): DTP human tumour cell line panel, 48 h

As a reminder, the TGI is the concentration giving total growth inhibition. The low end stands for more potent growth arrest, the high end for less potent growth arrest. In the case of `Cc1cc(C)nc(Nc2nc3ccc([N+](=O)[O-])cc3[nH]2)n1`, the TGI in the assay with COLO 205 colon, in the assay with DMS 273 small cell lung, with HCC-2998 colon, with HOP-92 NSCLC, in the assay on K-562 leukemia and with KM20L2 colon was above 100 µM throughout. Further, the TGI in the assay on LXFL 529 NSCLC, with SF-295 CNS and in the assay with SF-539 CNS was above 100 µM each time.

As to `CS(=O)c1ccc(COP(N)(=O)N(CCCl)CCCl)cc1` (configuration not stated), the TGI with COLO 205 colon, in the assay with DMS 273 small cell lung, in the assay with HCC-2998 colon, in the assay on HOP-92 NSCLC, in the assay on K-562 leukemia and in the assay on KM20L2 colon was above 100 µM each time. Further, the total growth inhibition concentration (TGI) in the assay with LXFL 529 NSCLC, in the assay with SF-295 CNS and with SF-539 CNS was above 100 µM throughout.

Regarding `O=C(O)C12C3CCCC1C2CC3` (configuration not stated), the TGI in the assay on COLO 205 colon, in the assay with HOP-92 NSCLC, with K-562 leukemia, in the assay on KM20L2 colon, in the assay with LXFL 529 NSCLC and in the assay on SF-295 CNS was above 100 µM each time. This compound returned a total growth inhibition concentration (TGI) in the assay on SF-539 CNS above 100 µM.

As to `COC(=O)c1c(CC#N)cccc1CC#N`, the concentration for total growth inhibition (TGI) with COLO 205 colon, in the assay on DMS 273 small cell lung, with HCC-2998 colon, in the assay with HOP-92 NSCLC, in the assay with K-562 leukemia and with KM20L2 colon was above 100 µM each time. Moreover, the total growth inhibition concentration (TGI) with LXFL 529 NSCLC, in the assay on SF-295 CNS and in the assay on SF-539 CNS was above 100 µM each time.

On to `Nc1c(-c2nc3ccccc3[nH]2)sc(=S)n1-c1ccccc1`, for which the TGI with COLO 205 colon, with DMS 273 small cell lung, in the assay on HCC-2998 colon, with HOP-92 NSCLC, in the assay with K-562 leukemia and in the assay with LXFL 529 NSCLC was above 100 µM each time. For the same compound, the total growth inhibition concentration (TGI) in the assay on SF-295 CNS and in the assay on SF-539 CNS was above 100 µM in each case.

As to `CC1(C)OCC(CO)(Nc2nc(N3CC3)nc(N3CC3)n2)CO1`, the total growth inhibition concentration (TGI) in the assay with COLO 205 colon was 60.9 µM; in the assay with DMS 273 small cell lung, 25.8 µM; with HCC-2998 colon, 36.3 µM; with HOP-92 NSCLC, 51.5 µM; with K-562 leukemia it was above 100 µM; in the assay on KM20L2 colon, 51.8 µM. Also, the concentration for total growth inhibition (TGI) is above 100 µM with LXFL 529 NSCLC, 20.3 µM with SF-295 CNS and 27 µM with SF-539 CNS.

For orientation: GI50 means the concentration at which growth is held to half of that of the control. With `CC1=Cc2cc3[n-]c(cc4nc(cc5[n-]c(cc1n2)cc5C)C(C)=C4CCC(=O)O)c(CCC(=O)O)c3C.[Pd+2]`, the GI50 in the assay on COLO 205 colon is 16.8 µM; in the assay with DMS 273 small cell lung it was 12 µM; in the assay on HCC-2998 colon it was 10.2 µM; with K-562 leukemia, 11 µM; with KM20L2 colon it was 17.5 µM; with LXFL 529 NSCLC it was 2.86 µM. Besides, the results for the GI50 in the assay with SF-295 CNS and in the assay on SF-539 CNS were 17.5 µM and 3.71 µM, respectively. The TGI with COLO 205 colon was 41.6 µM; in the assay with DMS 273 small cell lung it was 32.7 µM; with HCC-2998 colon, 28.8 µM; with HOP-92 NSCLC it was above 23.8 µM; with K-562 leukemia, above 37 µM; with KM20L2 colon, 44.3 µM. In addition, the total growth inhibition concentration (TGI) in the assay on LXFL 529 NSCLC is 11.1 µM; with SF-295 CNS, 36.3 µM; in the assay with SF-539 CNS, 13.7 µM.

For the compound `CCOC(=O)C(=O)Nc1c(N(CC)CC)n2ccccc2nc1=O`, the concentration for total growth inhibition (TGI) with COLO 205 colon, with DMS 273 small cell lung, with HOP-92 NSCLC, with K-562 leukemia, in the assay with KM20L2 colon and in the assay with LXFL 529 NSCLC was above 100 µM in each case. In the assay on SF-539 CNS, this compound gave a total growth inhibition concentration (TGI) above 100 µM.

With `CCOP(=O)(OCC)/C(C#N)=C/c1ccco1`, the TGI in the assay with COLO 205 colon, in the assay on HCC-2998 colon, in the assay with HOP-92 NSCLC, in the assay with K-562 leukemia, with LXFL 529 NSCLC and in the assay on SF-295 CNS was above 100 µM each time. Besides, in the assay with SF-539 CNS, the concentration for total growth inhibition (TGI) is above 100 µM.

For `CC(=O)/C=C/c1ccc(C2CC(C)=Nc3c(ccc4c3C(=O)c3ccccc3C4=O)N2)cc1` (configuration not stated), the concentration for total growth inhibition (TGI) in the assay with COLO 205 colon, in the assay with DMS 273 small cell lung, in the assay on HCC-2998 colon, in the assay with HOP-92 NSCLC, in the assay with K-562 leukemia and in the assay with KM20L2 colon was above 100 µM in each case. In addition, the TGI in the assay on SF-295 CNS and in the assay on SF-539 CNS was above 100 µM throughout.

`Cc1cc2c(F)c(Oc3ncnn4cc(OC[C@@H](C)OC(=O)[C@H](C)N)c(C)c34)ccc2[nH]1`: the GI50 is 10.7 µM in the assay with COLO 205 colon; 13.5 µM with HCC-2998 colon; 16.6 µM with HOP-92 NSCLC; 3.83 µM with K-562 leukemia; 9.79 µM in the assay on NCI/ADR-RES ovarian; 7.87 µM with SF-295 CNS. Also, the GI50 with SF-539 CNS is 4.81 µM. Besides, the TGI is 25.1 µM in the assay on COLO 205 colon; 27.6 µM in the assay with HCC-2998 colon; 33.5 µM in the assay with HOP-92 NSCLC; 20.2 µM in the assay with K-562 leukemia; 30.2 µM with NCI/ADR-RES ovarian; 21.3 µM in the assay on SF-295 CNS. In the assay with SF-539 CNS, this compound showed a total growth inhibition concentration (TGI) of 17.3 µM.

As to `Nc1ccccc1C#C/C=C\C#Cc1ccc(Cl)cc1Cl`, the GI50 is 23.8 µM with COLO 205 colon; 3.37 µM in the assay on HCC-2998 colon; 17 µM with HOP-92 NSCLC; 4.84 µM in the assay with K-562 leukemia; 4.42 µM in the assay on NCI/ADR-RES ovarian; 5.17 µM with SF-295 CNS. The GI50 with SF-539 CNS is 12.3 µM. Besides, the TGI with COLO 205 colon is above 100 µM; in the assay on HCC-2998 colon, 9.58 µM; in the assay on HOP-92 NSCLC it was 48.1 µM; in the assay with K-562 leukemia it was above 100 µM; with NCI/ADR-RES ovarian, 18.8 µM; in the assay with SF-295 CNS, 20 µM. The compound also displayed a TGI in the assay with SF-539 CNS of 28.9 µM.

Regarding `C[C@]12CC[C@@H]3c4ccc(O)cc4CC[C@H]3[C@@H]1CC[C@@H]2NS(=O)(=O)Cc1ccc(Cl)cc1`, the GI50 with COLO 205 colon was 1.81 µM; with HCC-2998 colon it was 2.99 µM; in the assay with HOP-92 NSCLC, 2.13 µM; in the assay on K-562 leukemia, 2.99 µM; in the assay with NCI/ADR-RES ovarian it was 2.69 µM; in the assay on SF-295 CNS it was 1.72 µM. Besides, in the assay on SF-539 CNS, the GI50 is 1.88 µM. The TGI in the assay on COLO 205 colon turned out to be 3.27 µM; in the assay with HCC-2998 colon, 8.14 µM; in the assay with HOP-92 NSCLC, 7.24 µM; with K-562 leukemia, 21.3 µM; in the assay with NCI/ADR-RES ovarian it was 10.7 µM; with SF-295 CNS, 3.56 µM. Also, the concentration for total growth inhibition (TGI) in the assay with SF-539 CNS turned out to be 4.39 µM.

For the origin of these results see PubChem BioAssay (NCI).
